{
  "source": "patent US8088822B2",
  "about": "“Use of fenretinide or bioactive derivatives thereof and pharmaceutical compositions comprising the same” (priority 2008, dated 2012)",
  "key": {"[1]": {"test_system": "CD34+CD38− AML stem cells", "test": "Apoptosis of AML stem cells", "format": "cell-based, human", "conditions": "1-7.5 μM, 48 h", "protocol": "(§1) Primitive AML and CML subpopulations (CD34^+ cells) were identified using CD34-PE in combination with CD38-APC, and followed by double-labeling with 7AAD and Annexin V antibodies for apoptosis assessment. The CD34^+ cells were first stained with antibodies against the surface markers CD34-PE and CD38-APC (Beckman Coulter, Fullerton, Calif.) and incubated at room temperature for 15 minutes. Cells were then washed with cold PBS and resuspended in 200 μL annexin V 1×binding buffer (10 mM HEPES/NaOH, pH 7.4, 140 mM NaCl, 2.5 mM CaCl2), 5 μL AnnexinV-FITC (BD Phanningen, San Diego, Calif.) and 7-aminoactinomycin (7-AAD, 0.25 mg/mL) (Molecular Probes, Eugene, Oreg.). Subsequently, the samples were incubated at room temperature for 15 minutes and analyzed by flow cytometry.\n(§2) To determine whether 4-oxo-N-(4-hydroxyphenyl)retinamide like fenretinide could preferentially target primitive leukemia cells, CD34^+ cells are isolated from bone marrow specimens of AML patients and subjected to apoptosis assay upon the treatment with 1-7.5 μM 4-oxo-N-(4-hydroxyphenyl)retinamide for 48 h."}, "[2]": {"test_system": "CD34+CD38+ AML progenitor cells", "test": "Apoptosis of AML progenitor cells", "format": "cell-based, human", "conditions": "1-7.5 μM, 48 h", "protocol": "as §1, §2"}, "HL60 cells [3]": {"test_system": "HL60 cells", "test": "MTT cell viability of quiescent and proliferating HL60 cells", "format": "cell-based", "conditions": "0-10 μM, 24 and 48 h", "protocol": "The cell viability was determined by 3-(4,5-dimethylthiazol-2-yl)-2,5-diphenyltetrazolium bromide (MTT) assay.\nAs previous case (Example 1), HL60 cells were chosen as serum deprived quiescent leukemic cell model obtained when incubated in RPMI 1640 without serum for 48 h. Serum-deprived quiescent leukemic cells and proliferating leukemic cells were then cultured in media containing 0.5% FBS, and treated with 0-10 μM 4-oxo-N-(4-hydroxyphenyl)retinamide for 24 and 48 h, respectively. The cell viability was test by MTT assay."}, "U937 [4]": {"test_system": "U937", "test": "Apoptosis in AML cell line U937", "format": "cell-based", "conditions": "U937, within 48 hours, alone or combined", "protocol": "(§3) 2×10^5 cultured cells were used for evaluating apoptosis using an ApoAlert Annexin V-FITC Apoptosis Kit (BD Biosciences). Cells were washed once by PBS, resuspended in 200 μl Annexin-V binding buffer, and then stained with Annexin V-FITC 5 μl, PI 10 μl for 15 min at room temperature in the dark. Cells were subsequently analyzed by flow cytometry.\nThere are two observations that drive us in further exploring alternative therapeutic combinations. As illustrated in Example 6, proteasome inhibitors can potentate fenretinide-induced apoptosis in leukemia. […] The apoptosis rates were quite low when treated alone within 48 hours (nearly 5%), and the number doubled when treated by fenretinide and MG132."}, "HL60 cells [5]": {"test_system": "HL60 cells", "test": "Mitochondrial transmembrane potential (MTP) assay, Rh123/PI, HL60 cells", "format": "cell-based", "conditions": "quiescent HL60 cells; 20 μM IDA or 5 μM Ara-C", "protocol": "(§4) HL60 cells were cultured in RPMI 1640 supplemented (i) with or (ii) without 10% fetal bovine serum to obtain proliferating and quiescent leukemia cells respectively. Serum-deprived quiescent leukemic cells and proliferating leukemic cells were then cultured in media containing 0.5% FBS, and treated with 1 μM and 2.5 μM fenretinide, and also with chemotherapeutics as controls, 20 μM idarubicin (IDA) and 5 μM cytarabine (Ara-C).\n(§5) To examine the effects of fenretinide on proliferating and quiescent leukemia cells, HL60 cells were chosen as serum deprived quiescent leukemic cell model obtained when incubated in RPMI 1640 without serum for 48 h, with G0/G1 phase cells (being in quiescent state) accounting up to 59.9%. Serum-deprived quiescent leukemic cells and proliferating leukemic cells were then cultured in media containing 0.5% FBS, and treated with 1 μM and 2.5 μM fenretinide, and also with chemotherapeutics as controls, 20 μM idarubicin (IDA) and 5 μM cytarabine (Ara-C). […] Fenretinide induces intracellular production of ROS, lowers mitochondrial transmembrane potential (MTP), and eventually leads to apoptosis in a variety of malignancies. We measured MTP induced by fenretinide in proliferating and quiescent HL60 cells, as examined through rhodamine 123 and propidium iodide staining and followed by flow cytometry analysis. […] We further measured intracellular ROS abundance induced by fenretinide. […] After incubation with 1 μM and 2.5 μM fenretinide for 3 h, the ROS level of proliferating cells increased by 1.77 and 2.6 fold, respectively."}, "U937 [6]": {"test_system": "U937", "test": "Growth inhibition and combination index in AML cell line U937", "format": "cell-based", "conditions": "U937, single agent", "protocol": "The combination Index (CI) was used to test the combination effect of fenretinide and Ara-C on growth inhibition in AML cell line U937. The CI was calculated according to the classic isobologram equation: CI=d1/D1+d2/D2. In this equation, D1 and D2 represent the doses of drug 1 and drug 2 alone, required to produce x % effect, and d1 and d2 are the doses of drugs 1 and 2 in combination required to produce the same effect. And CI<1, CI>1 and CI=1 represent the synergism, […], respectively."}, "HL60 cells [7]": {"test_system": "HL60 cells", "test": "Annexin V apoptosis assay in proliferating and serum-deprived quiescent HL60 cells", "format": "cell-based", "conditions": "20 μM IDA", "protocol": "as §4, §3, §5"}, "K562": {"test_system": "K562", "test": "Apoptosis in CML cell line K562", "format": "cell-based", "conditions": "4 μM fenretinide, 0.25 μM imatinib, 0.1 μM MG132, alone or combined", "protocol": "as §3"}, "MKN45": {"test_system": "MKN45", "test": "Apoptosis in gastric tumor cell line MKN45 (Rh123/PI, FACS)", "format": "cell-based", "conditions": "MKN45, 48 hours; 4 μM fenretinide, 5 μM Tet, alone or co-treatment", "protocol": "Loss of MTP was evaluated through rhodamine 123 (Rh123) and propidium iodide (PI) staining. 2×10^5 cells were washed by PBS and incubated with 1 μg/ml Rh123 at 37° C. for 30 min. After washed by PBS, 10 μl PI was added to cells for 15 min at room temperature in the dark. Fluorescence emission at 530 nm (representing R123 retention as a function of MTP) was measured with flow cytometry.\nFenretinide induces intracellular ROS and ER stress to activate series of molecular events including apoptotic pathway and such anti-apoptotic pathways as NF-κB cascade. NF-κB can mediate the progression of inflammation-related cancer. […] Unlike fenretinide, Tet is the well-known anti-cancer and anti-inflammation drugs via inhibiting the activity of NF-κB. For example, Tet, as the main effective component of Stephenia tetrandra S Moore, has bioactivities in reversing MDR (multidrug resistance), blocking calcium ion channel and so on. […] FIGS. 19A and 19B show synergistic induction of apoptosis by fenretinide and Tet, as evaluated by Rh123/PI double stain using FACS. […] Through annexin-V/PI double staining, synergistic apoptosis profiles of fenretinide/tetrandrine co-treated MKN45 and SGC7901 cells were also observed (see FIGS. 19C and 19D)."}, "patients with CML": {"test_system": "patients with CML", "conditions": "patients with CML treated with imatinib; cited from earlier work"}, "CML CD34+ cells": {"test_system": "CML CD34+ cells", "test": "Colony forming assay in primary CML CD34+ cells", "format": "cell-based, human", "conditions": "0.25 μM imatinib, 4 μM fenretinide or both, 14 days", "from_the_text": "Fresh bone marrow (BM) cells were obtained from 38 patients with CML and 5 non-leukemic donors, 25 AML, 17 ALL, and 8 normal specimens with informed consent according to the Declaration of Helsinki. Approval was obtained from Institutional Review Board at the School of Medicine in Shanghai Jiao Tong University. BM mononuclear cells were isolated by Ficoll density gradient centrifugation (Shanghai Second Reagent Factory, Shanghai, China). CD34^+ Cell were selected using EasySep® Human CD34 Positive Selection kit (Stem Cell Technologies, Vancouver, BC, Canada) according to the manufacturer's instructions. […] The CD34^+ cells were cultured in a serum-free medium (StemPro 34; Gibco BRL, Gaithersburg, Md.) supplemented with growth factors (PeproTech, London, United Kingdom) (20). The growth factors consisted of GM-CSF (200 pg/mL), G-CSF (1 ng/mL); SCF (200 pg/mL); LIF (50 pg/mL), MIP-1α (200 pg/mL) and IL-6 (1 ng/mL).\nA quantity of 1000 CD34^+ cells were plated in semisolid methylcellulose-based media (Methocult H4434: Stem Cell Technologies, Vancouver, BC, Canada). After incubation at 37° C. in a fully humidified atmosphere of 5% CO2 for 14 days, granulocyte macrophage-colony-forming units (CFU-GM), erythroid burst-forming units (BFU-E), granulocyte, erythrocyte and monocyte, megakaryocyte-colony-forming units (CUF-GEMM) were counted. Only clusters with >50 cells were counted as a colony.\nWe further performed study to examine the effects of fenretinide on colony forming in primary CML cells derived from 38 bone marrow specimens of CML patients (TABLE 1). First, CML CD34^+ Cells were isolated using EasySep® Human CD34 Positive Selection kit (Stem Cell Technologies, Vancouver, BC, Canada). Upon treated with 2 μM and 4 μM fenretinide, colony forming assays were performed respectively on granulocyte macrophage-colony-forming units (CFU-GM), erythroid burst-forming units (BFU-E), granulocyte, erythrocyte and monocyte, megakaryocyte-colony-forming units (CFU-GEMM)."}, "NB4 cells": {"test_system": "NB4 cells", "test": "Antagonist assays, apoptosis of NB4 cells", "format": "cell-based", "conditions": "100 μM vitamin C pre-treatment 2 hours, then 1 μM fenretinide 24 hours"}},
  "note": "Where a SMILES comes first, the peptide text is derived from it. The star is where a group is joined. Cbz = O=C(OCc1ccccc1)*",
  "data": [
    {"smiles": "CC1=C(/C=C/C(C)=C/C=C/C(C)=C/C(=O)Nc2ccc(O)cc2)C(C)(C)CCC1=O", "note": "[4-oxo-N-(4-hydroxyphenyl)retinamide]", "values": [
      {"measurement": "apoptosis of CD34+CD38− AML stem cells", "setting": "[1]", "result": "dose-dependent manner"},
      {"measurement": "apoptosis of CD34+CD38+ AML progenitor cells", "setting": "[2]", "result": "dose-dependent manner"},
      {"measurement": "sensitivity (cell viability, MTT) of serum-deprived quiescent versus proliferating HL60 cells", "setting": "HL60 cells [3]", "result": "more sensitive"}
    ]},
    {"smiles": "Nc1ccn([C@@H]2O[C@H](CO)[C@@H](O)[C@@H]2O)c(=O)n1", "note": "[Ara-C, cytosine arabinoside]", "values": [
      {"measurement": "apoptosis rate", "setting": "U937 [4]", "result": "~5", "unit": "%"},
      {"measurement": "change in MTP", "setting": "HL60 cells [5]", "result": "little change in MTP"},
      {"measurement": "dose alone required for growth inhibition rate of 65.47%", "setting": "U937 [6]", "result": 0.091, "unit": "µM"}
    ]},
    {"smiles": "CC(=O)[C@]1(O)Cc2c(O)c3c(c(O)c2[C@@H](O[C@H]2C[C@H](N)[C@H](O)[C@H](C)O2)C1)C(=O)c1ccccc1C3=O", "note": "[IDA, idarubicin]", "values": [
      {"measurement": "apoptosis rate", "setting": "HL60 cells [7]; proliferating HL60 cells", "result": 88.7, "unit": "%"},
      {"measurement": "apoptosis rate", "setting": "HL60 cells [7]; quiescent HL60 cells", "result": 29.1, "unit": "%"},
      {"measurement": "change in MTP", "setting": "HL60 cells [5]", "result": "little change in MTP"}
    ]},
    {"smiles": "CC(C)C[C@@H](C=O)NC(=O)[C@H](CC(C)C)NC(=O)[C@H](CC(C)C)NC(=O)OCc1ccccc1", "note": "[MG132, N-[(phenyl-methoxy)-carbonyl]-L-leucyl-N-[(1S)-1-formyl-3-methylbutyl]-L-Leucinamide] (Cbz-Leu-Leu-Leu-aldehyde)", "values": [
      {"measurement": "apoptosis rate", "setting": "U937 [4]", "result": "~5", "unit": "%"},
      {"measurement": "apoptosis rate", "setting": "K562", "result": 2.51, "unit": "%"}
    ]},
    {"smiles": "COc1ccc2cc1Oc1ccc(cc1)C[C@H]1c3cc(c(OC)cc3CCN1C)Oc1c(OC)c(OC)cc3c1[C@H](C2)N(C)CC3", "note": "[Tet, tetrandrine]", "values": [
      {"measurement": "apoptosis", "setting": "MKN45", "result": 15.8, "unit": "%"}
    ]},
    {"smiles": "Cc1ccc(NC(=O)c2ccc(CN3CCN(C)CC3)cc2)cc1Nc1nccc(-c2cccnc2)n1", "note": "[imatinib, 4-[(4-methylpiperazin-1-yl)methyl]-N-[4-methyl-3-[(4-(3-pyridinyl)-pyrimidin-2-yl)amino]phenyl]benzamide]", "values": [
      {"measurement": "apoptosis rate", "setting": "K562", "result": 12.8, "unit": "%"},
      {"measurement": "complete cytogenetic response (CCR)", "setting": "patients with CML", "result": "~87", "unit": "%"},
      {"measurement": "GFU-GEMM formed by the more primitive progenitor cells", "setting": "CML CD34+ cells", "result": "could be detected"}
    ]},
    {"smiles": "O=C1O[C@H]([C@@H](O)CO)C([O-])=C1O.[Na+]", "note": "[vitamin C, ascorbic acid sodium salt]", "values": [
      {"measurement": "effect on fenretinide-induced apoptosis", "setting": "NB4 cells", "result": "completely abrogated"}
    ]}
  ]
}
